Results taken from article PMC10033419, “Blocking NS3–NS4B interaction inhibits dengue virus in non-human primates” (Nature, 2023).

System: DENV-1/45AZ5
Assay: NHP DENV-1 study, serum viral RNA RT-qPCR
Format: in vivo, rhesus macaques
Conditions: for qRT-PCR Assay Average GE/mL: LOQ 100 GE/reaction
Method: WRAIR is fully accredited by AAALAC International.
Serum samples from macaques were checked for the presence of DENV-1 RNA. Viral RNA for RT–qPCR was extracted from 100–200 µl of serum using the QIAcube instrumentation and the QIAGEN Viral RNA extraction kits. The primers and fluorogenic probes used in the RT–qPCR assays have been previously described[63],[64]. DENV-1 RNA was detected in a 25 µl reaction containing 5 µl of extracted RNA sample, 10 pmol of dengue-specific primers and 5 pmol dengue probe in the reaction mixture from Superscript Ill Platinum One-Step Quantitative RT-PCR Kit (Invitrogen, Thermo Fisher Scientific), consisting of 0.5 µl Superscript III RT/Platinum mix, 12.5 µl 2× reaction mix and 0.05 µl ROX reference dye. The one-step RT–qPCR comprises a 30 min RT step at 50 °C and 2 min of Taq polymerase activation at 94 °C, followed by 40 cycles of PCR at 94 °C for 5 s and 53 °C for 35 s performed in an ABI 7500DX Fast Real Time PCR system. Each assay included positive, negative and non-template controls. The RNA copy number was calculated from a standard curve of tenfold serial dilutions made from RNA in vitro transcripts consisting of DENV-1 with known copy numbers. The LLOQ was 100 genomic copies per reaction.
This sample size was sufficient to detect a significant difference in the number of infected animals in each of the groups as low as 83%. […] Sample processing and conducting of assays was performed by laboratory technicians not involved in the treatment/manipulation of the animals.

COc1cc(N[C@H](C(=O)c2c[nH]c3ccc(OC(F)(F)F)cc23)c2ccc(Cl)cc2OC)cc(S(C)(=O)=O)c1 [JNJ-1802]
DENV RNA (6 mg per kg per day q.d.): remained undetectable during the complete study period | qRT-PCR Assay Result (animal R7, Day 0): Negative | qRT-PCR Assay Average GE/mL (animal R7, Day 0): 0.00E+00 GE/mL | qRT-PCR Assay Result (animal R7, Day 1): Negative | qRT-PCR Assay Average GE/mL (animal R7, Day 1): 0.00E+00 GE/mL | qRT-PCR Assay Result (animal R7, Day 2): Negative | qRT-PCR Assay Average GE/mL (animal R7, Day 2): 0.00E+00 GE/mL | qRT-PCR Assay Result (animal R7, Day 3): Negative | qRT-PCR Assay Average GE/mL (animal R7, Day 3): 0.00E+00 GE/mL | qRT-PCR Assay Result (animal R7, Day 4): Negative | qRT-PCR Assay Average GE/mL (animal R7, Day 4): 0.00E+00 GE/mL | qRT-PCR Assay Result (animal R7, Day 5): Negative | qRT-PCR Assay Average GE/mL (animal R7, Day 5): 0.00E+00 GE/mL | qRT-PCR Assay Result (animal R7, Day 6): Negative | qRT-PCR Assay Average GE/mL (animal R7, Day 6): 0.00E+00 GE/mL | qRT-PCR Assay Result (animal R7, Day 7): Negative | qRT-PCR Assay Average GE/mL (animal R7, Day 7): 0.00E+00 GE/mL | qRT-PCR Assay Result (animal R7, Day 8): Negative | qRT-PCR Assay Average GE/mL (animal R7, Day 8): 0.00E+00 GE/mL | qRT-PCR Assay Result (animal R7, Day 9): Negative | qRT-PCR Assay Average GE/mL (animal R7, Day 9): 0.00E+00 GE/mL | qRT-PCR Assay Result (animal R7, Day 10): Negative | qRT-PCR Assay Average GE/mL (animal R7, Day 10): 0.00E+00 GE/mL | qRT-PCR Assay Result (animal R7, Day 11): Negative | qRT-PCR Assay Average GE/mL (animal R7, Day 11): 0.00E+00 GE/mL | qRT-PCR Assay Result (animal R7, Day 14): Negative | qRT-PCR Assay Average GE/mL (animal R7, Day 14): 0.00E+00 GE/mL | qRT-PCR Assay Result (animal R7, Day 29): Negative | qRT-PCR Assay Average GE/mL (animal R7, Day 29): 0.00E+00 GE/mL | qRT-PCR Assay Result (animal R8, Day 0): Negative | qRT-PCR Assay Average GE/mL (animal R8, Day 0): 0.00E+00 GE/mL | qRT-PCR Assay Result (animal R8, Day 1): Negative | qRT-PCR Assay Average GE/mL (animal R8, Day 1): 0.00E+00 GE/mL | qRT-PCR Assay Result (animal R8, Day 2): Negative | qRT-PCR Assay Average GE/mL (animal R8, Day 2): 0.00E+00 GE/mL | qRT-PCR Assay Result (animal R8, Day 3): Negative | qRT-PCR Assay Average GE/mL (animal R8, Day 3): 0.00E+00 GE/mL | qRT-PCR Assay Result (animal R8, Day 4): Negative | qRT-PCR Assay Average GE/mL (animal R8, Day 4): 0.00E+00 GE/mL | qRT-PCR Assay Result (animal R8, Day 5): Negative | qRT-PCR Assay Average GE/mL (animal R8, Day 5): 0.00E+00 GE/mL | qRT-PCR Assay Result (animal R8, Day 6): Negative | qRT-PCR Assay Average GE/mL (animal R8, Day 6): 0.00E+00 GE/mL | qRT-PCR Assay Result (animal R8, Day 7): Negative | qRT-PCR Assay Average GE/mL (animal R8, Day 7): 0.00E+00 GE/mL | qRT-PCR Assay Result (animal R8, Day 8): Negative | qRT-PCR Assay Average GE/mL (animal R8, Day 8): 0.00E+00 GE/mL | qRT-PCR Assay Result (animal R8, Day 9): Negative | qRT-PCR Assay Average GE/mL (animal R8, Day 9): 0.00E+00 GE/mL | qRT-PCR Assay Result (animal R8, Day 10): Negative | qRT-PCR Assay Average GE/mL (animal R8, Day 10): 0.00E+00 GE/mL | qRT-PCR Assay Result (animal R8, Day 11): Negative | qRT-PCR Assay Average GE/mL (animal R8, Day 11): 0.00E+00 GE/mL | qRT-PCR Assay Result (animal R8, Day 14): Negative | qRT-PCR Assay Average GE/mL (animal R8, Day 14): 0.00E+00 GE/mL | qRT-PCR Assay Result (animal R8, Day 29): Negative | qRT-PCR Assay Average GE/mL (animal R8, Day 29): 0.00E+00 GE/mL | qRT-PCR Assay Result (animal R9, Day 0): Negative | qRT-PCR Assay Average GE/mL (animal R9, Day 0): 0.00E+00 GE/mL | qRT-PCR Assay Result (animal R9, Day 1): Negative | qRT-PCR Assay Average GE/mL (animal R9, Day 1): 0.00E+00 GE/mL | qRT-PCR Assay Result (animal R9, Day 2): Negative | qRT-PCR Assay Average GE/mL (animal R9, Day 2): 0.00E+00 GE/mL | qRT-PCR Assay Result (animal R9, Day 3): Negative | qRT-PCR Assay Average GE/mL (animal R9, Day 3): 0.00E+00 GE/mL | qRT-PCR Assay Result (animal R9, Day 4): Negative | qRT-PCR Assay Average GE/mL (animal R9, Day 4): 0.00E+00 GE/mL | qRT-PCR Assay Result (animal R9, Day 5): Negative | qRT-PCR Assay Average GE/mL (animal R9, Day 5): 0.00E+00 GE/mL | qRT-PCR Assay Result (animal R9, Day 6): Negative | qRT-PCR Assay Average GE/mL (animal R9, Day 6): 0.00E+00 GE/mL | qRT-PCR Assay Result (animal R9, Day 7): Negative | qRT-PCR Assay Average GE/mL (animal R9, Day 7): 0.00E+00 GE/mL | qRT-PCR Assay Result (animal R9, Day 8): Negative | qRT-PCR Assay Average GE/mL (animal R9, Day 8): 0.00E+00 GE/mL | qRT-PCR Assay Result (animal R9, Day 9): Negative | qRT-PCR Assay Average GE/mL (animal R9, Day 9): 0.00E+00 GE/mL | qRT-PCR Assay Result (animal R9, Day 10): Negative | qRT-PCR Assay Average GE/mL (animal R9, Day 10): 0.00E+00 GE/mL | qRT-PCR Assay Result (animal R9, Day 11): Negative | qRT-PCR Assay Average GE/mL (animal R9, Day 11): 0.00E+00 GE/mL | qRT-PCR Assay Result (animal R9, Day 14): Negative | qRT-PCR Assay Average GE/mL (animal R9, Day 14): 0.00E+00 GE/mL | qRT-PCR Assay Result (animal R9, Day 29): Negative
